From patent US20220339260A1, “METHOD FOR PRODUCING INSULIN-PRODUCING CELL USING DIHYDROINDOLIZINONE DERIVATIVES” (TOKYO INSTITUTE OF TECHNOLOGY, priority 2019, published 2022)

Columns and labels:
[1] = tested on: SK7 mouse ES cells; test: Screening for β cell differentiation enhancer using SK7 mouse ES cells (Pdx1-GFP); assay type: cell-based; conditions: LY411575 alone
Description: The SK7 mouse ES cells were differentiated into β cells basically according to the previous report (Nakashima et al., 2015). Briefly, the cells were seeded at 5,000 cells per well in CellBIND 384-well (CORNING, 3770) cell culture plate or at 20,000 cells per well in a 96-well plate (Sigma) coated with 0.2% gelatin. Then, the cells were cultured in medium 1 from days 1 to 5. Medium 1 consisted of DMEM (high glucose) (Life Technologies, 11965092) supplemented with 0.1 mM NEAA (Gibco, 11140-50), 2 mM L-glutamine (Nacalai, 16948-04), 100 U/mL penicillin-streptomycin (Nacalai, 26252-94), 0.01 mM β-mercaptoethanol (Sigma), 1% insulin-transferrin-selenium supplement (ITS: Life Technologies, 41400045), 0.25% Albumax (Thermo Fisher, 11020021), and 10 ng/mL recombinant human activin-A (R&D Systems, 338-AC). Subsequently, the cells were cultured for 1 day in medium 2 which consisted of medium 1 supplemented with 10 μM retinoic acid (Stemgent, 04-0021). On day 6, the medium was replaced with medium 3, and the culture was continued until day 12 in order to induce differentiation into β cells. Medium 3 consisted of DMEM (low glucose) (Life Technologies, 11885084) supplemented with 0.1 mM NEAA, 2 mM L-glutamine, 100 U/mL penicillin-streptomycin, 0.1 mM β-mercaptoethanol, 1% ITS, 0.25% Albumax, and 3 mM nicotinamide (Sigma-Aldrich, N0636-500G). A test compound was added on day 8, and the cells were fixed in 4% paraformaldehyde for analysis using a high-content imager.
A chemical library consisting of about 55,000 compounds was screened for a substance that induced β cell differentiation. […] Fluorescence images were quantified using Operetta high-content imaging system and Harmony image analysis software (PerkinElmer, Germany). The nuclei were identified by DAPI staining, and the positivity of antibody staining was determined from the fluorescence intensity of a cytoplasmic region surrounding the nucleus. The number of cells positive to both insulin and GFP was counted and normalized with the total number of DAPI-positive cells or a positive area. A median of quadruple data was calculated, and screening hits were defined as states in which the number of insulin- and GFP-positive cells was increased as compared with a DMSO control. […] The activity of the selected candidate compounds was further analyzed with Toe human iPS cell assay system in order to select a hit compound having effectiveness for both differentiation into mouse β cells and differentiation into human β cells. A compound was added as described above, and its effectiveness was evaluated from a mRNA expression level by q-PCR in triplet experiments. […]

[2] = tested on: Toe human iPS cells; test: Differentiation of Toe human iPS cells into iPS-β cells, monolayer culture, protocol #1; assay type: cell-based; conditions: treatment from later stage of stage 3 to initial stage of stage 5
Description: The Toe human iPS cells were seeded in CellBIND 6-well (CORNING, CLS3335) cell culture plate coated with synthemax II, and differentiated into primitive gut tube cells by the previously described method (Shahjalal et al., 2014). The cells were dissociated with TrypLE Select (Thermo Fisher, 12563011) and cryopreserved in BanBanker (Nippon genetics) at a density of 1.0 to 2.0×10^7 cells/mL until use. One day before compound addition, the cells were thawed in a medium for stage 3 (DMEM (high glucose), 0.25 μM SANT1 (Wako, 197-16351), 0.1 μM LDN193189 (Stemgent, 04-0074), 10 μM SB431542, 2 μM retinoic acid, 1% B27-free serum supplement (Life Technologies, 17504044), and seeded at 150,000 cells per well in CellBIND 96-well (Corning, 3340) cell culture plated coated with synthemax II. The cells were cultured for 1 day in a medium for stage 3 containing a test compound or a negative control (0.01% DMSO). The cells were further cultured for 2 days and 1 day in media for stages 4 and 5, respectively, containing the test compound or the negative control. On the next day, the cells were fixed in 4% paraformaldehyde for analysis using a high-content imager.

[3] = tested on: RPChiPS771 iPSC; test: Differentiation of RPChiPS771 iPS cells, sphere culture, protocol #1; assay type: cell-based, human; conditions: 0.25 μM, methionine depletion 5 hours
Description: (§1) The RPChipS771 cells were maintained as described above, and differentiated according to protocol #1. Briefly, on day 0, the cells were dissociated with TrypLE Select, transferred at a concentration of 1×10^6 cells/mL in Essential 8 medium to a low-attachment 6-well plate (Greiner, 657185), and cultured on a rotary shaker (95 rpm). On day 1, the medium was replaced with methionine-depleted medium KA01 (Ajinomoto), and the cells were cultured for 5 hours. The medium was replaced with differentiation medium 1 (DMEM (high glucose), L-Gln, NEAA, 0.01 mM β-mercaptoethanol, 100 ng/mL activin A, B27 supplement, 3 μM CHIR99021), and the cells were cultured for 1 day (stage 1-1). Then, the medium was replaced with medium 1 free from CHIR99021, and the cells were cultured for 2 days (stage 1-2). […]

[4] = tested on: Ff-I01s01; test: Differentiation of Ff-I01s01 iPS cells, sphere culture, protocol #2; assay type: cell-based, human
Description: The FfI-01s01 cells were maintained as described above and then differentiated according to protocol #2. Briefly, the cells were dissociated with TrypLE Select, transferred at a concentration of 1×10^6 cells/mL in AK03N medium (Ajinomoto Co., Inc.) to a low-attachment 6-well plate, and cultured for 24 hours on a rotary shaker (95 rpm). Then, the medium was replaced with AK03N-based methionine-depleted medium KA01, and the cells were cultured for 5 hours. Then, the medium was replaced with M1-1 AKM medium, and the cells were cultured for 24 hours (stage 1-1). The cells were cultured for 2 days in M1-2 AKM medium (stage 1-2), subsequently cultured for 2 days in M2 AKM medium (stage 2-1), cultured for 2 days in S2 medium (stage 2-2), cultured for 2 days in S3 medium (stage 3), cultured for 5 days in S4 medium (stage 4), cultured for 4 days in S5-1 medium (stage 5-1), and cultured for 3 days in S5-2 medium (stage 5).
In the case of evaluating the effectiveness of a compound for a differentiation rate and a cell function, a test compound and a negative control ([…]), and immunostaining was carried out on days 14 (at the completion of stage 4) and 21 (at the completion of stage 5) in order to confirm an effect on positivity to insulin, NKX6.1, and PDX1. GSIS assay was carried out on day 21.
Immunocytochemistry was carried out according to a general protocol using the following antibodies: rabbit anti-MAFA (Abcam; ab26405; 1/100×), goat anti-PDX1 (R&D systems; AF2419; 1/100×), mouse anti-NKX6.1 (Developmental Studies Hybridoma Bank, University of Iowa; F64A6B4; 1/100×), guinea pig anti-INSULIN (Dako; IR002; 1/10×), mouse anti-INSULIN (Sigma-Aldrich; 12018; 1/1000×), rabbit anti-C-peptide (Cell Signaling; 4593; 1/100×), rabbit anti-GFP (MBL International Corp; 598; 1/1000×), and mouse anti-GLUCAGON (Sigma-Aldrich; G2654; 1/1000×). […]

[5] = tested on: iPS-β cells (RpChiPSC771); test: GSIS function assay of iPS-β cells from sphere culture of RPChiPSC771, protocol #1; assay type: cell-based, human; conditions: 1 μM, treatment between stages 3 and 4
Description: as §1
Batch-mode GSIS assay was carried out as described below. […] The C-peptide concentration of a sample was measured using alphaLISA C-peptide kit (PerkinElmer, AL299F) or C-peptide ELISA and corrected with the DNA content of the cells used in the GSIS assay.

[6] = tested on: iPS-β cells; test: Response of iPS-β cells to insulin secretagogues (c-peptide secretion); assay type: cell-based, human; conditions: glibenclamide, exendin 4, and KCl
Description: Batch-mode GSIS assay was carried out as described below. An aliquot of the obtained human iPS-β cells was washed with LG-KRBH as described above. Then, the cells were incubated for 30 minutes or 1 hour in LG-HKRB buffer and subsequently incubated for the same time thereas in HG-HKRB buffer. In some experiments, after washing of the cells, the cells were dispensed into some aliquots and incubated for 1 hour in HG-HKRB buffer containing 0.01% DMSO or several types of insulin secretagogues. The C-peptide concentration of a sample was measured using alphaLISA C-peptide kit (PerkinElmer, AL299F) or C-peptide ELISA and corrected with the DNA content of the cells used in the GSIS assay.

SMILES	number of Pdx1-GFP+Ins+ double-positive cells [1]	differentiation into iPS-β cells (INS+ cells) [2]	differentiation into INSULIN+PDX1+ double-positive cells [3]	differentiation depending on time window of addition ([4]; added in a time window including stage 3)	differentiation into INSULIN+NKX6.1+, NKX6.1+PDX1+ double-positive and INSULIN+NKX6.1+PDX1+ triple-positive cells ([4]; protocol #2, end of stage 4 and later)	production of NKX6.1+ and INSULIN+NKX6.1+ double-positive cells ([4]; treatment particularly in stages 3 to 5)	glucose stimulated insulin secretion (GSIS) activity of obtained iPS-β cells [5]	insulin secretion dynamics in step-wise time-course measurement [5]	c-peptide secretion by stimulation with insulin secretagogues [6]
C[C@H](NC(=O)[C@@H](O)c1cc(F)cc(F)c1)C(=O)N[C@@H]1C(=O)N(C)c2ccccc2-c2ccccc21 [LY411575, reference compound]	increase	–	–	–	–	–	–	–	–
O=C1CCC(C(=O)Nc2ncc(-c3ccc(OC(F)(F)F)cc3)s2)n2cccc21 (stereo not drawn) [Synthesis Example 9, 8-Oxo-N-[5-[4-(trifluoromethoxy)phenyl]thiazol-2-yl]-6,7-dihydro-5H-indolizine-5-carboxamide]	–	stronger efficacy than that of the original compound K-1	enhanced differentiation	enhance differentiation most effectively	enhanced differentiation	promoted the production	enhanced	rapid first-phase insulin secretion and long-lasting second-phase insulin secretion	enhanced c-peptide secretion
